In patent publication US12114689B2 (NICOVENTURES TRADING LIMITED, priority 2018, dated 2024):

Legend:
[1] = binding energy with the cyclodextrin host; conditions: such as (2-Hydroxypropyl)-β-cyclodextrin
Description: The flavor components should be added last; this is due to the generally higher binding energy (vs. nicotine) with the cyclodextrin host. […] For menthol example, the approximate binding energies are −4.13 Kcal·mol^−1 (nicotine) and −5.06 Kcal·mol^−1 (menthol). […] Microfiltration may then be performed, in this case, to remove any excess menthol which has not formed a complex with cyclodextrin.

[2] = cited from earlier work

CC1CCC(C(C)C)C(O)C1 (stereo not drawn) [menthol]
approximate binding energy with the cyclodextrin host [1]: ~-5.06 kcal/mol

2-hydroxy-propyl-β-cyclodextrin [2-hydroxy-propyl-O-cyclodextrin]
solubility in water compared to base cyclodextrins such as β-cyclodextrin [2]: increased solubility in water

CN1CCC[C@H]1c1cccnc1 (stereo in doubt) [Nicotine, 3-(1-methylpyrrolidin-2-yl) pyridine]
approximate binding energy with the cyclodextrin host [1]: ~-4.13 kcal/mol
